Values of other authors in patent US3995028A, “Antibiotic OS-3256-B” (The Kitasato Institute, priority 1975, dated 1976).

Tested on: animal tumors such as leukemia L-1210, Sarcoma-180 and Hela cells

For C[C@H](N)C(=O)N[C@@H](CCC(=O)C=[N+]=[N-])C(=O)N[C@@H](CCC(=O)C=[N+]=[N-])C(=O)O [Alazopeptin, L-alanyl-(6-diazo-5-oxo)-L-norleucyl-(6-diazo-5-oxo)-L-norleucine], the “inhibitory activity against animal tumors” value is given as “inhibitory activity against animal tumors”.
